Data: patent US20030003579A1, “Dendritic cells; methods” (priority 2000, published 2003)

Experiments:
pre-DC2 [1] = assay: Cytokine production by pre-DC2, ELISA of supernatants; format: cell-based, human; details: 24 h
Procedure: (§1) Underlines indicate palindromic sequences. ODNs 1668, 2117, and 2006 are phosphorothioate forms, and ACC-30, AAC-30, and GAC-30 are phosphodiester forms. The phosphorothioate ODNs were added at 0 h at 0.1 μM or 1 μM, and the phosphodiester ODNs were added at 0, 4, and 16 h, 5 μM at each time point, to compensate for their degradation by deoxyribonuclease activity in media.
(§2) Monocytes, CD11c^+ DC, and pre-DC2 were isolated from human peripheral blood. See Grouard, et al. (1997) J. Exp'l Med. 185:1101-1111; and Kadowaki, et al. (2000) J. Exp'l Med. 192:219-226. The cells were cultured for 24 h in RPMI1640 containing 10% FCS at 2×10^4/200 μl in round-bottom 96-well culture plates in the presence of ODNs or 50 μg/ml poly I:C (Sigma). Adult dermal fibroblasts (Clonetics) were maintained as recommended by the company, and were stimulated with 50 μg/ml poly I:C for 24 h at 7.5×10^4/ml in 12-well culture plates.
(§3) An IFN-α ELISA kit, an IL-12 ELISA kit (Biosource International), and an IFN-β ELISA kit (FUJIREBIO) were used to analyze cytokine production.
(§4) It was examined whether CpG ODNs and poly I:C induce pre-DC2 to produce IFN-α. Cells were stimulated with various CpG ODNs (2117, 2006, 1668: 1 μM, ACC-30, AAC-30, GAC-30: 5 μM) for 24 h, and the concentrations of IFN-α in the supernatants were measured by ELISA. Typically, cytokine is accumulated from cultures of about 2×10^4 cells in 200 μl cultured for 24 h. […] In contrast, AAC-30 and GAC-30 induced pre-DC2 to produce large amounts of IFN-α (AAC-30 508-1806 pg/ml, GAC-30 931-1362 pg/ml). ACC-30 induced pre-DC2 to produce much smaller amounts of IFN-α (18-161 pg/ml). None of the CpG ODNs used here induced CD11c^+ DC and monocytes to produce detectable levels of IFN-α.

pre-DC2 [2] = assay: Viability of pre-DC2 by propidium iodide staining and flow cytometry; format: cell-based, human; details: 24 h culture
Procedure: as §1, §2
IV. Analysis of viability of pre-DC2 stimulated with ODNs or poly I:C Pre-DC2 cultured for 24 h without stimulation or with ODNs or poly I:C were stained with propidium iodide, and were analyzed with a FACScan® flow cytometer (Becton Dickinson). After cell debris was excluded by an appropriate forward scatter threshold, the percentages of propidium iodide-negative cells were calculated.
Pre-DC2 were cultured for 24 h without stimulation, with the indicated ODNs, or with 50 μg/ml poly I:C. ACC-30, AAC-30, and GAC-30 were added at 5 μM. After cell debris was excluded by an appropriate forward scatter threshold, the percentages of propidium iodide-negative cells were measured by flow cytometry

pre-DC2 [3] = assay: Flow cytometric analysis of CD80 and CD86 expression on pre-DC2; format: cell-based, human; details: for expression of CD80 and CD86 on pre-DC2: 5 μM phosphodiester ODN, 24 h
Procedure: as §1, §2
(§5) Freshly isolated pre-DC2 and pre-DC2 stimulated with ODNs for 24 h were stained with PE-conjugated anti-CD80 (L307.4, Becton Dickinson), PE-conjugated anti-CD86 (2331, Pharmingen), or an isotype control antibody. CD11c^+ DC cultured for 24 h without stimulation or with poly I:C were stained with FITC-conjugated anti-CD80 (L307.4), FITC-conjugated anti-CD86 (2331), or an isotype control antibody. The cells were analyzed with a FACScan® flow cytometer. Dead cells were excluded by staining with propidium iodide.
Freshly isolated pre-DC2 and pre-DC2 cultured with the CpG ODNs for 24 h were stained with PE-conjugated anti-CD80 or anti-CD86 mAbs. The upregulation of CD80 and CD86 expression on pre-DC2 is a hallmark of their differentiation into DC. Grouard, et al. (1997) J. Exp'l Med. 185:1101-1111; and Kadowaki, et al. (2000) J. Exp'l Med. 192:219-226.

monocytes = assay: Cytokine production by monocytes, ELISA of supernatants; format: cell-based, human; details: 24 h; for IFN-α production by monocytes: CpG ODNs (2117, 2006, 1668: 1 μM; ACC-30, AAC-30, GAC-30: 5 μM)
Procedure: as §1, §2, §3, §4

CD11c^+ DC [4] = assay: Cytokine production by CD11c+ DC, ELISA of supernatants; format: cell-based, human; details: 24 h
Procedure: as §1, §2, §3, §4

Adult dermal fibroblasts = assay: IFN-β production by poly I:C stimulated fibroblasts, ELISA; format: cell-based; details: 50 μg/ml poly I:C, 24 h, 7.5×10^4/ml
Procedure: as §2, §3

CD11c^+ DC [5] = assay: Flow cytometric analysis of CD80 and CD86 expression on CD11c+ DC; format: cell-based, human; details: 50 μg/ml poly I:C, 24 h culture
Procedure: as §2, §5
CD11c^+ DC cultured for 24 h without stimulation or with 50 μg/ml poly I:C were stained with FITC-conjugated anti-CD80 or anti-CD86 mAbs. […] Cella, et al. (1999) J. Exp'l Med. 189:821-829; and Verdijk, et al. (1999) J. Immunol. 163:57-61. […]

[6] = 5 μM ODN, about 2×10^4 cells in 200 μl
[7] = 5 μM phosphodiester ODN added at 0, 4 and 16 h
[8] = CpG ODNs (2117, 2006, 1668: 1 μM; ACC-30, AAC-30, GAC-30: 5 μM)

| Substance | expression of CD80 and CD86 on pre-DC2 (pre-DC2 [3]) | IFN-α production by pre-DC2 (pre-DC2 [1]; [6]) | IFN-α production by monocytes (monocytes) | survival of pre-DC2 (propidium iodide-negative cells) (pre-DC2 [2]; [7]) | IFN-α production by CD11c+ DC (CD11c^+ DC [4]; [8]) | further results |
| --- | --- | --- | --- | --- | --- | --- |
| 1668: CpG oligodeoxynucleotide TCCATGACGTTCCTGATGCT (DNA, all phosphorothioate, methylation of C not given here) [compound 1668] |  |  |  |  |  | IFN-α production by pre-DC2 (pre-DC2 [1]; 1 μM ODN, about 2×10^4 cells in 200 μl): did not induce pre-DC2 to produce detectable levels of IFN-α; survival of pre-DC2 (propidium iodide-negative cells) (pre-DC2 [2]; 1 μM phosphorothioate ODN): did not maintain the survival of pre-DC2 |
| AAC-30: palindromic CpG oligodeoxynucleotide ACCGATAACGTTGCCGGTGACGGCACCACG (DNA, all phosphodiester, methylation of C not given here) | upregulated CD80 and CD86, albeit to a lesser extent than 2006 and 2117 | 508 to 1806 pg/mL | did not produce detectable levels of IFN-α | maintained the survival of pre-DC2 | did not produce detectable levels of IFN-α |  |
| ACC-30: oligodeoxynucleotide ACCGATACCGGTGCCGGTGACGGCACCACG (DNA, all phosphodiester, methylation of C not given here) |  | 18 to 161 pg/mL |  | less efficient |  |  |
| GAC-30: palindromic CpG oligodeoxynucleotide ACCGATGACGTCGCCGGTGACGGCACCACG (DNA, all phosphodiester, methylation of C not given here) | upregulated CD80 and CD86, albeit to a lesser extent than 2006 and 2117 | 931 to 1362 pg/mL | did not produce detectable levels of IFN-α | maintained the survival of pre-DC2 | did not produce detectable levels of IFN-α |  |
| polyinosinic polycytidylic acid [poly I:C] |  |  |  |  |  | IFN-β production by fibroblasts (Adult dermal fibroblasts): 28.6 to 48.5 pg/mL; expression of CD80 and CD86 on CD11c+ DC (CD11c^+ DC [5]): strongly upregulated; differentiation of pre-DC2 into DC (pre-DC2 [3]; poly I:C): does not stimulate pre-DC2 to survive and to differentiate into DC; IFN-α production by pre-DC2 (pre-DC2 [1]; 50 μg/ml poly I:C): did not induce pre-DC2 to produce a detectable level of IFN-α; IFN-β production by monocytes (monocytes; 50 μg/ml poly I:C): but not pre-DC2 or monocytes; survival of pre-DC2 (propidium iodide-negative cells) (pre-DC2 [2]; 50 μg/ml poly I:C): did not maintain the survival of pre-DC2; IFN-α production by CD11c+ DC (CD11c^+ DC [4]; 50 μg/ml poly I:C): 24.1 to 97.9 pg/mL; IFN-β production by CD11c+ DC (CD11c^+ DC [4]; 50 μg/ml poly I:C): 33.6 to 166.5 pg/mL; IL-12 production by CD11c+ DC (CD11c^+ DC [4]; 50 μg/ml poly I:C): 17.7 to 137.7 pg/mL |
